Measurements taken from the NIST ThermoML archive (doi:10.1016/j.jct.2018.09.027).

Assay: molar heat capacity at constant pressure
Conditions: 100 kPa, Crystal, DSC

O=C(O)c1cc(O)c(O)c(O)c1 [3,4,5-trihydroxybenzoic acid]
Conditions	molar heat capacity at constant pressure [J/K/mol]
367.15 K	233.29
368.15 K	233.91
369.15 K	234.54
370.15 K	234.94
371.15 K	235.6
372.15 K	236.24
373.15 K	236.91
374.15 K	237.55
375.15 K	238.16
376.15 K	238.86
377.15 K	239.45
378.15 K	240.16
379.15 K	240.81
380.15 K	241.44
381.15 K	242.11
382.15 K	242.78
383.15 K	243.42
384.15 K	244.06
385.15 K	244.7
386.15 K	245.37
387.15 K	246.02
388.15 K	246.65
389.15 K	247.32
390.15 K	248.01
391.15 K	248.58
392.15 K	249.14
393.15 K	249.71
394.15 K	250.27
395.15 K	250.84
396.15 K	251.4
397.15 K	251.97
398.15 K	252.44
399.15 K	253.11
400.15 K	253.68
401.15 K	254.24
402.15 K	254.81
403.15 K	255.1
404.15 K	255.93
405.15 K	256.5
406.15 K	257.08
407.15 K	257.65
408.15 K	258.22
409.15 K	258.78
410.15 K	259.34
411.15 K	259.92
412.15 K	260.74
413.15 K	261.25
414.15 K	261.59
415.15 K	261.81
416.15 K	262.27
417.15 K	262.78
418.15 K	263.53
419.15 K	264.31
420.15 K	265.03
421.15 K	266.54
422.15 K	266.57
423.15 K	267.3
424.15 K	268.08
425.15 K	268.84
426.15 K	269.59
427.15 K	270.33
428.15 K	271.11
429.15 K	271.85
430.15 K	272.62
431.15 K	273.38
432.15 K	274.32
433.15 K	274.91
434.15 K	275.59
435.15 K	275.85
436.15 K	276.19
437.15 K	276.7
438.15 K	277.38
439.15 K	277.72
440.15 K	278.23
441.15 K	278.83
442.15 K	279.51
443.15 K	280.61
444.15 K	280.87
445.15 K	281.12
446.15 K	281.63
447.15 K	282.23
448.15 K	283.16
449.15 K	283.84
450.15 K	284.18
451.15 K	285.04
452.15 K	286.14
453.15 K	286.82
454.15 K	287.67
455.15 K	288.44
456.15 K	289.03
457.15 K	289.8
458.15 K	290.56
459.15 K	291.24
460.15 K	292.18
461.15 K	292.86
462.15 K	293.2
463.15 K	293.8
464.15 K	294.99
465.15 K	295.67
466.15 K	296.35
467.15 K	297.03
468.15 K	297.96
469.15 K	298.9
470.15 K	300.18
471.15 K	301.03
